Results reported in patent US6225321A (priority 1997, dated 2001).
“And” between values parts separate entries of the source, which are not always exact repeats. Equal entries are not always repeated. Where two headings read alike, the source gives them in different places.

Key:
[1] = Half-life / conversion of dinalbuphine sebacoyl ester in rabbit blood; type: in vitro ADME; details: for Elimination half-life: n = 3, mean ± S.E.
Experimental: II. For Rabbit Experiments
(a) Dinalbuphine ester sebacoyl ester was dissolved in acetonitrile, the concentration was 5.2 mg/ml.
(b) 150 ml of whole blood collected from rats given dinalbuphine sebacoyl ester, and anticoagulant was added.

[2] = Half-life / conversion of dinalbuphine sebacoyl ester in dog blood; type: in vitro ADME; details: for Elimination half-life: n = 3, mean ± S.E.
Experimental: (a) Dinalbuphine sebacoyl ester was dissolved in acetonitrile, the concentration was 12.5 mg/ml.
(b) 200 ml of whole blood collected from rats given dinalbuphine sebacoyl ester, and anticoagulant was added.

[3] = Half-life / conversion of dinalbuphine sebacoyl ester in human blood; type: in vitro ADME; details: for Elimination half-life: n = 3, mean ± S.E.
Experimental: IV. For Human Experiments
(a) Dinalbuphine sebacoyl ester was dissolved in acetonitrile, the concentration was 10 mg/ml.
(b) 250 ml of whole blood collected from rats given dinalbuphine sebacoyl ester, and anticoagulant was added.

Sprague Dawley rats = experiment: Analgesic effect, cold ethanol bath tail flick test, intramuscular, rats; type: in vivo, rat
Experimental: Sprague Dawley rats(175 to 225 g) were used. Each group consisted of 6 rats and each rats was injected once intramuscularly on the rear leg. […]
The dose for each rat was 25 micromole per kg, intramuscularly.
In the experiment, a circulating cold ethanol bath with a temperature maintained at -20° C. was set up. After dosing, the rat tail(1/3 from the tip) was immersed in the bath. The latency for the rat to flick its tail from the bath was measured to be the nociceptive threshold. The effect of various opium alkaloid preparations can be determined with this test.
The nociceptive effect can be calculated as follows: [formula]
35, 25, 15 minutes before dosing, Male Sprague Dawley rat(175-225 g) was tested to measure the basic response latency. The time to top the experiment was set at 40 seconds to prevent the tail from cold sore. No cold sore were found in 40 sec. Five minutes after the drug was given to the rat, the flick test was performed every 10 minutes or more. […]
(c) Dinalbuphine sebacoyl ester, dose was 7.8125 μ/kg, 31.25 μM/kg, 125 μM/kg.
(d) 50 mg/ml dinalbuphine sebacoyl ester parenteral dosage forms, dinalbuphine sebacoyl ester was prepared in sesame oil.

[4] = Pharmacokinetic study of long acting preparation in Beagle dogs; type: in vivo, Beagle dog; details: for CL/F: read-out: CLt (converted); for Vd/F: read-out: Vss
Experimental: Six Beagle dogs were used. Five Beagle dogs were intramuscularly injected with 30 mg/kg long acting sebacoyl dinalbuphine ester parenteral administration respectively, and another one was injection with 100 mg/kg long acting sebacoyl dinalbuphine ester oily parenteral administration. Blood samples were collected through the vein in front limb of dogs at 1, 2, 6, 24, 30, 48, 54, 72, 78, 96, 102, 120, 168, 192 hours. […] Relationship between time and concentration was analyzed by PCNONLIN computer program. Two compartment model and pharmacokinetic parameters were calculated to depicted absorption, distribution, metabolism, and excretion of drugs in dogs.

human body = experiment: Analgesic duration of sebacoyl dinalbuphine calculated for the human body; type: in vivo; details: 125 μM/23 kg
Experimental: Therefore, the analgesic effect could be calculated on 4-5 days at 125 μM/23 kg to human body for sebacoyl dinalbuphine.
Besides, such parenteral volume was not ideal for a single dose. However, this invention made a development. By diluting a single dose of sebacoyl dinalbuphine in 7.15 ml sesame oil form, parenteral administration could give the analgesic effect maintained 4 to 5 days. In other words, the analgesic effect was extended […] for a single dose of intramuscularly injected sebacoyl dinalbuphine at only 7 ml oil vehicle.

[5] = Table 7, Dog 2, Dose 24.3 mg/kg
[6] = Table 7, Dog 2, Dose 81.0 mg/kg
[7] = dog, plasma, im, 24.3 mg/kg, Table 7, Dog 2, Dose 24.3 mg/kg
[8] = dog, plasma, im, 30 mg/kg, Mean of 5 dogs, 30 mg/kg i.m.
[9] = dog, plasma, im, 81 mg/kg, Table 7, Dog 2, Dose 81.0 mg/kg
[10] = individual Dog 1 to Dog 5, lines in this order, 30 mg/kg i.m., listed as SDN, 30 mg/kg

O=C(CCCCCCCCC(=O)Oc1ccc2c3c1O[C@H]1[C@@H](O)CC[C@@]4(O)[C@@H](C2)N(CC2CCC2)CC[C@]314)Oc1ccc2c3c1O[C@H]1[C@@H](O)CC[C@@]4(O)[C@@H](C2)N(CC2CCC2)CC[C@]314 [sebacoyl dinalbuphine ester]
Elimination half-life ([1]; rabbit plasma): 0.116 ± 0.0005 h | Elimination half-life ([1]; rabbit red blood cell): 0.437 ± 0.08 h | Elimination half-life ([1]; rabbit whole blood): 0.248 ± 0.0217 h | converted time of 90% into Nalbuphine ([1]; rabbits): 25 min | half life ([1]; rabbits, HPLC): 7.0 min | Elimination half-life ([2]; dog plasma): 0.463 ± 0.0083 h | Elimination half-life ([2]; dog red blood cell): 0.557 ± 0.0233 h | Elimination half-life ([2]; dog whole blood): 0.508 ± 0.013 h | converted time of 90% into Nalbuphine ([2]; dogs): 95 min | half life ([2]; dogs, HPLC): 0.463 h | Elimination half-life ([3]; human plasma): 9.0 ± 0.4 min | Elimination half-life ([3]; human red blood cell): 7.7 ± 0.4 min | Elimination half-life ([3]; human whole blood): 8.8 ± 0.4 min | converted time of 90% into Nalbuphine ([3]; humans): 30 min | half life ([3]; humans, HPLC): 9.0 min | dose dependence of analgesic effect (Sprague Dawley rats; FIG. 9, rats, intramuscular, 7.8125, 31.25, 125 μM/kg): proportional to the dose administered | time to which 50% analgesic effect was extended (Sprague Dawley rats; FIG. 10, intramuscular, 125 μM/kg): 88 h | analgesic effect relative to Nalbuphine hydrochloride (Sprague Dawley rats; intramuscular): 8.8 times | duration of analgesic effect (Sprague Dawley rats; rats, intramuscular, dose below 125 μM/kg): 4 to 5 days | A ([4]; Mean of 5 dogs, 30 mg/kg i.m.): 15.0 µg/mL | AUMC ([4]; Mean of 5 dogs, 30 mg/kg i.m.): 983.2 h^2 μg/ml | Abs. time ([4]; Mean of 5 dogs, 30 mg/kg i.m.): 92.6 h | B ([4]; Mean of 5 dogs, 30 mg/kg i.m.): 0.32 µg/mL | Vc ([4]; Mean of 5 dogs, 30 mg/kg i.m.): 14.84 L/kg | k12 ([4]; Mean of 5 dogs, 30 mg/kg i.m.): 8.51 h⁻¹ | k21 ([4]; Mean of 5 dogs, 30 mg/kg i.m.): 0.28 h⁻¹ | ko ([4]; Mean of 5 dogs, 30 mg/kg i.m.): 180.6 µg/kg/h | α ([4]; Mean of 5 dogs, 30 mg/kg i.m.): 9.98 h⁻¹ | A [4, 5]: 14.1 µg/mL | AUC/D [4, 5]: 0.478 kg·h/mL | AUMC [4, 5]: 915 h^2 ng/ml | Abs. time [4, 5]: 95.6 h | B [4, 5]: 0.22 µg/mL | Vc [4, 5]: 10.21 L/kg | k12 [4, 5]: 5.53 h⁻¹ | k21 [4, 5]: 0.13 h⁻¹ | ko [4, 5]: 149.9 µg/kg/h | α [4, 5]: 6.85 h⁻¹ | A [4, 6]: 59.0 µg/mL | AUC/D [4, 6]: 0.488 kg·h/mL | AUMC [4, 6]: 5026 h^2 ng/ml | Abs. time [4, 6]: 168.0 h | B [4, 6]: 0.51 µg/mL | Vc [4, 6]: 10.21 L/kg | k12 [4, 6]: 8.99 h⁻¹ | k21 [4, 6]: 0.11 h⁻¹ | ko [4, 6]: 354.2 µg/kg/h | α [4, 6]: 10.73 h⁻¹ | AUC [4, 7]: 11900 ng·h/mL | CL/F [4, 7]: 1.21 mL/h/kg | bioavailability ([4]; dog, plasma, im, 24.3 mg/kg, Table 7, Dog 2, Dose 24.3 mg/kg, read-out: F): 59% | MRT ([4]; dog, plasma, im, 24.3 mg/kg, Table 7, Dog 2, Dose 24.3 mg/kg, read-out: MRT): 78.8 h | Vd/F [4, 7]: 450 L/kg | k el ([4]; dog, plasma, im, 24.3 mg/kg, Table 7, Dog 2, Dose 24.3 mg/kg, read-out: k10 (converted)): 0.000336 s⁻¹ | half-life ([4]; dog, plasma, im, 24.3 mg/kg, Table 7, Dog 2, Dose 24.3 mg/kg, read-out: t1/2,α (converted)): 0.1 h | half-life ([4]; dog, plasma, im, 24.3 mg/kg, Table 7, Dog 2, Dose 24.3 mg/kg, read-out: t1/2,β (converted)): 30.6 h | k el ([4]; dog, plasma, im, 24.3 mg/kg, Table 7, Dog 2, Dose 24.3 mg/kg, read-out: β (converted)): 6.39e-06 s⁻¹ | AUC [4, 8]: 13600 ng·h/mL | CL/F [4, 8]: 1.22 mL/h/kg | Cmax ([4]; dog, plasma, im, 30 mg/kg, Mean of 5 dogs, 30 mg/kg i.m., read-out: Cmax): 149 ng/mL | bioavailability ([4]; dog, plasma, im, 30 mg/kg, Mean of 5 dogs, 30 mg/kg i.m., read-out: F): 63.1% | MRT ([4]; dog, plasma, im, 30 mg/kg, Mean of 5 dogs, 30 mg/kg i.m., read-out: MRT): 73.2 h | Vd/F [4, 8]: 574 L/kg | k el ([4]; dog, plasma, im, 30 mg/kg, Mean of 5 dogs, 30 mg/kg i.m., read-out: k10 (converted)): 0.000339 s⁻¹ | half-life ([4]; dog, plasma, im, 30 mg/kg, Mean of 5 dogs, 30 mg/kg i.m., read-out: t1/2,α (converted)): 0.09 h | half-life ([4]; dog, plasma, im, 30 mg/kg, Mean of 5 dogs, 30 mg/kg i.m., read-out: t1/2,β (converted)): 27.7 h | k el ([4]; dog, plasma, im, 30 mg/kg, Mean of 5 dogs, 30 mg/kg i.m., read-out: β (converted)): 8.33e-06 s⁻¹ | AUC ([4]; dog, plasma, im, 30 mg/kg, individual Dog 1 to Dog 5, lines in this order, 30 mg/kg i.m.): 9730 ng·h/mL | MRT ([4]; dog, plasma, im, 30 mg/kg, individual Dog 1 to Dog 5, lines in this order, 30 mg/kg i.m., read-out: MRT): 84.3 h | AUC [4, 9]: 36200 ng·h/mL | CL/F [4, 9]: 1.64 mL/h/kg | Cmax ([4]; dog, plasma, im, 81 mg/kg, Table 7, Dog 2, Dose 81.0 mg/kg, read-out: Cmax): 204 ng/mL | bioavailability ([4]; dog, plasma, im, 81 mg/kg, Table 7, Dog 2, Dose 81.0 mg/kg, read-out: F): 73.4% | MRT ([4]; dog, plasma, im, 81 mg/kg, Table 7, Dog 2, Dose 81.0 mg/kg, read-out: MRT): 127 h | Vd/F [4, 9]: 861 L/kg | k el ([4]; dog, plasma, im, 81 mg/kg, Table 7, Dog 2, Dose 81.0 mg/kg, read-out: k10 (converted)): 0.000456 s⁻¹ | half-life ([4]; dog, plasma, im, 81 mg/kg, Table 7, Dog 2, Dose 81.0 mg/kg, read-out: t1/2,α (converted)): 0.07 h | half-life ([4]; dog, plasma, im, 81 mg/kg, Table 7, Dog 2, Dose 81.0 mg/kg, read-out: t1/2,β (converted)): 41.9 h | k el ([4]; dog, plasma, im, 81 mg/kg, Table 7, Dog 2, Dose 81.0 mg/kg, read-out: β (converted)): 4.72e-06 s⁻¹ | bioavailability ([4]; dog, plasma, im, Beagle dogs, intramuscular, read-out: bioavailability): ~63% | half-life ([4]; dog, plasma, im, Beagle dogs, intramuscular, read-out: half life for excretion (converted)): ~30 h | A [4, 10]: 20.9 μg/ml and 14.1 μg/ml (2×) and 9.5 μg/ml and 16.5 μg/ml | AUMC [4, 10]: 934.4 h^2 μg/ml and 915.0 h^2 μg/ml and 886.2 h^2 μg/ml and 1217.4 h^2 μg/ml and 1063.0 h^2 μg/ml | Abs. time [4, 10]: 164.5 h and 95.6 h (2×) and 49.3 h and 58.0 h | B [4, 10]: 0.46 µg/mL and 0.22 µg/mL and 0.32 µg/mL and 0.36 µg/mL and 0.21 µg/mL | Cmax [4, 10]: 59 ng/mL and 112 ng/mL and 197 ng/mL and 255 ng/mL and 123 ng/mL | F [4, 10]: 87.9% and 40.4% and 59.6% and 68.8% | MRT [4, 10]: 61.1 h and 62.7 h and 79.1 h | Vc [4, 10]: 13.88 L/kg and 10.21 L/kg and 14.95 L/kg and 10.65 L/kg and 24.50 L/kg | Vss [4, 10]: 360.9 L/kg and 428.1 L/kg and 303.6 L/kg and 1325 L/kg | k12 [4, 10]: 6.16 h⁻¹ and 5.53 h⁻¹ and 21.55 h⁻¹ and 3.89 h⁻¹ and 5.43 h⁻¹ | k21 [4, 10]: 0.25 h⁻¹ and 0.13 h⁻¹ and 0.78 h⁻¹ and 0.14 h⁻¹ and 0.10 h⁻¹ | ko [4, 10]: 129.9 µg/kg/h and 149.9 µg/kg/h and 199.1 µg/kg/h and 249.5 µg/kg/h and 174.9 µg/kg/h | t1/2,β [4, 10]: 10.94 h and 30.61 h and 28.64 h and 30.99 h and 37.26 h | α [4, 10]: 8.54 h⁻¹ and 6.85 h⁻¹ and 23.02 h⁻¹ and 4.76 h⁻¹ and 6.74 h⁻¹ | order of absorption ([4]; injection oil vehicle, intramuscular): zero order | kinetic linearity with dose ([4]; two doses in the same dog): linear kinetic | duration of analgesic effect calculated for human body (human body): 4 to 5 days
